ChEMBL document CHEMBL1201862, “PubChem BioAssay data set” (2004)
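Interpolation was linear, between the two tested concentrations surrounding the appropriate level; five concentrations were tested over 48 hours in 96-well plates. GI50 is the concentration that inhibits growth by half.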 The source made the active and inactive calls. Cut-off read from the data, not from the text of the source: active = GI50 up to about 1.1 µM and inactive = higher.

How the values were obtained:
Assay in all cases: inhibition of tumour cell growth, NCI panel, 48 h
[1] = tested on: NCI-H226
[2] = tested on: RPMI-8226
[3] = tested on: EKVX
[4] = tested on: UACC-62
[5] = tested on: CAKI-1
[6] = tested on: SR
[7] = tested on: UO-31
[8] = tested on: Hs-578T
[9] = tested on: SN12C
[10] = tested on: SF-268
[11] = tested on: SF-295
[12] = tested on: TK-10
[13] = tested on: HCC 2998
[14] = tested on: MCF7
[15] = tested on: HT-29
[16] = tested on: LOX IMVI
[17] = tested on: OVCAR-4
[18] = tested on: T47D
[19] = tested on: CCRF-CEM
[20] = tested on: HL-60

Row | SMILES | GI50 [1] | GI50 [2] | GI50 [3] | GI50 [4] | GI50 [5] | GI50 [6] | GI50 [7] | GI50 [8] | GI50 [9] | GI50 [10] | GI50 [11] | GI50 [12] | GI50 [13] | GI50 [14] | GI50 [15] | GI50 [16] | GI50 [17] | GI50 [18] | GI50 [19] | GI50 [20]
1 | O=C(NCC(C(=O)OCc1ccccc1)C(=O)OCc1ccccc1)OCc1ccccc1 | 50.4 µM (inactive) | > 100 µM (inactive) | 72.3 µM (inactive) | > 100 µM (inactive) | > 100 µM (inactive) | 37.9 µM (inactive) | 47.9 µM (inactive) | > 100 µM (inactive) | > 100 µM (inactive) | > 100 µM (inactive) | > 100 µM (inactive) | > 100 µM (inactive) | > 100 µM (inactive) | 49.3 µM (inactive) | > 100 µM (inactive) | – | – | – | – | –
2 | CSc1nc2c(c(N(C)C)n1)C=Nn1c(nc3ccccc31)S2 | > 100 µM (inactive) | > 100 µM (inactive) | – | 83 µM (inactive) | > 100 µM (inactive) | – | 51.1 µM (inactive) | 41.4 µM (inactive) | > 100 µM (inactive) | 60.4 µM (inactive) | > 100 µM (inactive) | > 100 µM (inactive) | 70.5 µM (inactive) | – | > 100 µM (inactive) | 76.2 µM (inactive) | 81.8 µM (inactive) | 64.1 µM (inactive) | – | –
3 | CN(C)CCCNC(=O)CCNC(=O)c1cc(NC(=O)c2cc(NC(=O)c3cc(NC(=O)CCCNC(=O)c4cc(NC(=O)c5cc(NC(=O)c6nccn6C)cn5C)cn4C)cn3C)cn2C)cn1C | > 100 µM (inactive) | > 100 µM (inactive) | > 100 µM (inactive) | – | > 100 µM (inactive) | – | > 100 µM (inactive) | > 100 µM (inactive) | > 100 µM (inactive) | > 100 µM (inactive) | > 100 µM (inactive) | > 100 µM (inactive) | > 100 µM (inactive) | > 100 µM (inactive) | > 100 µM (inactive) | > 100 µM (inactive) | > 100 µM (inactive) | – | > 100 µM (inactive) | > 100 µM (inactive)
4 | O=C(c1ccc(Br)cc1)n1c2ccc(Br)cc2c2nc3ccccc3nc21 | > 100 µM (inactive) | > 100 µM (inactive) | > 100 µM (inactive) | > 100 µM (inactive) | > 100 µM (inactive) | 83.2 µM (inactive) | > 100 µM (inactive) | – | > 100 µM (inactive) | > 100 µM (inactive) | > 100 µM (inactive) | > 100 µM (inactive) | > 100 µM (inactive) | > 100 µM (inactive) | > 100 µM (inactive) | > 100 µM (inactive) | > 100 µM (inactive) | > 100 µM (inactive) | > 100 µM (inactive) | 83.6 µM (inactive)
5 | COc1ccc2c(c1)/C(=C\c1c(C)nc3n1CCS3)C(=O)N2 | – | 34.5 µM (inactive) | 34.5 µM (inactive) | 22.7 µM (inactive) | 33.4 µM (inactive) | 9.14 µM (inactive) | 34.3 µM (inactive) | – | 26.5 µM (inactive) | – | 16.4 µM (inactive) | 35.8 µM (inactive) | 19.2 µM (inactive) | 27.6 µM (inactive) | 12.6 µM (inactive) | 26.5 µM (inactive) | – | 27.7 µM (inactive) | 24.7 µM (inactive) | 15.6 µM (inactive)
6 | [N-]=[N+]=NC1=NNC2(C(=O)N1)c1ccccc1-c1ccccc12 | > 100 µM (inactive) | – | > 100 µM (inactive) | > 100 µM (inactive) | > 100 µM (inactive) | – | > 100 µM (inactive) | 27.6 µM (inactive) | > 100 µM (inactive) | > 100 µM (inactive) | > 100 µM (inactive) | > 100 µM (inactive) | > 100 µM (inactive) | 72.1 µM (inactive) | > 100 µM (inactive) | > 100 µM (inactive) | > 100 µM (inactive) | – | > 100 µM (inactive) | > 100 µM (inactive)
7 | CCCCCCCCCCCCCCCCOCC(CC(F)(F)P(=O)(O)O)OC(C)=O (stereo unspecified) | > 50 µM (inactive) | > 50 µM (inactive) | > 50 µM (inactive) | > 50 µM (inactive) | > 50 µM (inactive) | – | > 50 µM (inactive) | – | > 50 µM (inactive) | > 50 µM (inactive) | > 50 µM (inactive) | > 50 µM (inactive) | > 50 µM (inactive) | > 50 µM (inactive) | > 50 µM (inactive) | – | – | – | – | –
8 | CO[C@H]1C[C@H](O[C@H]2CC[C@]3(C=O)[C@H]4CC[C@]5(C)[C@@H](C6=CC(=O)OC6)CC[C@]5(O)[C@@H]4CC[C@]3(O)C2)O[C@H](C)[C@H]1O[C@@H]1O[C@H](CO)[C@@H](O)[C@H](O)[C@H]1O | 7.85e-05 µM (active) | 3.7e-05 µM (active) | 7e-06 µM (active) | 6.17e-05 µM (active) | 1.34e-05 µM (active) | > 0.01 µM (active) | 3.49e-05 µM (active) | > 0.01 µM (active) | 1.05e-05 µM (active) | 1.19e-05 µM (active) | 2.04e-05 µM (active) | 2.48e-05 µM (active) | > 0.01 µM (active) | – | 3.03e-05 µM (active) | 2.61e-05 µM (active) | 8.63e-06 µM (active) | 5.53e-05 µM (active) | > 0.01 µM (active) | > 0.01 µM (active)
